# How the values were obtained:
# [1] = test system: L1210 murine leukemia cells; assay: evaluation of cytotoxic activity, method (a); format: cell-based; details: Mus musculus, 48 h at 37° C., 5% CO2, dose causing 50% inhibition of cell growth relative to untreated controls, 0.5% DMSO
# Method: As an example, the activity of (E)-9-(2-methoxycarbonyl-ethenyl) camptothecin (internal code FCE 28681) and 9-(2-methoxycarbonyl-ethyl) camptothecin (internal code FCE 29559) were tested according to the following method (a).
# The compounds were dissolved in dimethylsulfoxide (DMSO) at a final concentration of 0.5%.
# Method (a): evaluation of cytotoxic activity
# L1210 murine leukemia cells were grown in vitro as a floated cells in RPMI 1640 medium supplemented with 10% fetal calf serum, 1% L-glutamine 200 mM, 1% of B-mercaptoethanol 1 mM, 100 UI/ml penicillin and 100 μg streptomycin. For assaying the cytotoxic activity, exponentially growing cells were seeded at the concentration of 5×10^4 cells/ml and exposed to graded doses of the compounds under evaluation for 48 h at 37° C. in an humidified atmosphere of 5% CO2. The number of surviving cells was determined with a Coulter Counter; results are expressed as IC50 (dose causing 50% inhibition of cell growth in treated cultures relative to untreated controls after 48 h treatment) in this assay, (E)-9-(2-methoxycarbonyl-ethenyl) camptothecin (internal code FCE 28681) and 9-(2-methoxycarbonyl-ethyl) camptothecin (internal code FCE 29559) were tested and the obtained results are reported on Table 1 below.
# [2] = human plasma, 2 hours after drug addition; cited from earlier work
# human albumin = details: biologically relevant levels of human albumin; cited from earlier work
# cancer cells = details: both in vitro and in vivo; cited from earlier work
# Topoisomerase I = details: cited from earlier work
compound,measurement,setting,value
"CC[C@@]1(O)C(=O)OCc2c1cc1n(c2=O)Cc2cc3c(/C=C/C(=O)OC)cccc3nc2-1 [FCE 28681, (E)-9-(2-methoxycarbonyl-ethenyl)camptothecin]",IC50,[1],3.3 ± 1.8 ng/mL
"CC[C@@]1(O)C(=O)OCc2c1cc1n(c2=O)Cc2cc3c(CCC(=O)OC)cccc3nc2-1 [FCE 29559, 9-(2-methoxycarbonyl-ethyl)camptothecin]",IC50,[1],2.7 ± 0.5 ng/mL
CC[C@@]1(O)C(=O)OCc2c1cc1n(c2=O)Cc2cc3ccccc3nc2-1 [camptothecin],percentage of drug converted to camptothecin carboxylate,[2],greater than 99%
same,half-life of the biologically active form,human albumin,about 12 min.
same,anticancer activity of the lactone versus the carboxylate form,cancer cells,significantly greater for the lactone versus the carboxylate form
same,antitumor activity by inhibition of Topoisomerase I,Topoisomerase I,potent antitumor activity
